Eight compounds from ChEMBL document CHEMBL5154832, “Design, Synthesis, and Proof-of-Concept of Triple-Site Inhibitors against Aminoacyl-tRNA Synthetases” (J Med Chem, 2022) can be followed below.

What is called MIC is the lowest concentration that inhibits growth of the organism. One may read the ΔTm as the shift of the melting midpoint relative to a reference. In general, inhibition refers to the change of the read-out against control, counted positive when it falls. In general, IC50 refers to the concentration needed to halve the response being measured. A word on the Kd: it is the constant that tells how readily two partners part at equilibrium.

Molecules are shown by their SMILES. Converted amounts (≈) assume the structure as drawn.

The subject of assay [1] is Escherichia coli. The assay can be described thus: Antibacterial activity against Escherichia coli ATCC 25922 strain assessed as inhibition of bacterial growth incubated for 8 hrs by CLSI protocol based microdilution assay. It is filed as functional. A general note: Broth dilution looks for growth in wells or tubes with falling amounts of substance.
In assay [2] the target is T1, Threonine--tRNA ligase (Salmonella enterica) (UniProt A0A3F3IEK2).
T1 sequence (whole entry): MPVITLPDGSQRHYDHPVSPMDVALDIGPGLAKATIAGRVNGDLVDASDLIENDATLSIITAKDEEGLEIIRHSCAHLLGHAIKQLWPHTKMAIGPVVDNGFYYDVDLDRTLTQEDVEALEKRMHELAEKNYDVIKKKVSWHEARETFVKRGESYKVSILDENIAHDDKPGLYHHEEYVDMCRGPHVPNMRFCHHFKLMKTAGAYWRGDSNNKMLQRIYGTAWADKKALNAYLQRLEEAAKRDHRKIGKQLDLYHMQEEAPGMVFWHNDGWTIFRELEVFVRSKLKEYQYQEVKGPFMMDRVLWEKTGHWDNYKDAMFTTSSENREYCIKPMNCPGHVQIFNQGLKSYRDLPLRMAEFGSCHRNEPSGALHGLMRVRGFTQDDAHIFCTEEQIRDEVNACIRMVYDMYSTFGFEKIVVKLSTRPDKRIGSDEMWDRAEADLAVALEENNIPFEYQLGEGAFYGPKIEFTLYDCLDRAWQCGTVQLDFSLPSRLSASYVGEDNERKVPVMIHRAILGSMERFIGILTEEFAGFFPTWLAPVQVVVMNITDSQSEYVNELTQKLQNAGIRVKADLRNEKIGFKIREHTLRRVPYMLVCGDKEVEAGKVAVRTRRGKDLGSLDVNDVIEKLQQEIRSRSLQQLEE
The assay can be described thus: Binding affinity to recombinant salmonella enterica threonyl-tRNA synthetase assessed as change in melting temperature at 0.1 mM by fluorescence-based thermal shift assay.

Assay [3] addresses T1, Threonine--tRNA ligase (Salmonella enterica). The assay can be described thus: Inhibition of recombinant salmonella enterica threonyl-tRNA synthetase assessed as reduction in enzyme activity at 10 uM incubated for 20 min by Kinase Glo luminescence assay relative to control. A general note: Kinase-Glo measures the ATP left after a reaction by luminescence.
The subject of assay [4] is Staphylococcus aureus. The assay can be described thus: Antibacterial activity against Staphylococcus aureus ATCC 29213 strain assessed as inhibition of bacterial growth incubated for 8 hrs by CLSI protocol based microdilution assay. The format is functional.
A further assay deals with Enterococcus faecalis. The assay can be described thus: Antibacterial activity against Enterococcus faecalis ATCC 29212 strain assessed as inhibition of bacterial growth incubated for 8 hrs by CLSI protocol based microdilution assay. It is filed as functional.
Assay [5] has as its system Staphylococcus aureus. Nature of the assay: Antibacterial activity against Staphylococcus aureus MRSA R3708 strain assessed as inhibition of bacterial growth incubated for 8 hrs by CLSI protocol based microdilution assay. It is filed as functional.
For assay [6], the system named is Salmonella enterica. The assay can be described thus: Antibacterial activity against Salmonella enterica 87 strain assessed as inhibition of bacterial growth incubated for 8 hrs by CLSI protocol based microdilution assay. It is filed as functional.
Assay [7] deals with Escherichia coli. The assay can be described thus: Antibacterial activity against Escherichia coli acraB strain assessed as inhibition of bacterial growth incubated for 8 hrs by CLSI protocol based microdilution assay. It is filed as functional.
The next assay deals with Pseudomonas aeruginosa. The assay can be described thus: Antibacterial activity against Pseudomonas aeruginosa ATCC27853 strain assessed as inhibition of bacterial growth incubated for 8 hrs by CLSI protocol based microdilution assay. The format is functional.
The subject of assay [8] is Salmonella enterica. Nature of the assay: Antibacterial activity against Salmonella enterica 87 strain assessed as inhibition of bacterial growth incubated in M9 medium for 8 hrs by CLSI protocol based microdilution assay. It is filed as functional.
Assay [9] deals with T2, Threonine--tRNA ligase (Salmonella enterica, UniProt A0A3F3IEK2).
T2 sequence (A0A3F3IEK2 whole entry): T1 sequence (whole entry)
Nature of the assay: Inhibition of recombinant salmonella enterica threonyl-tRNA synthetase assessed as reduction in enzyme activity incubated for 20 min by Kinase Glo luminescence assay.

Assay [10] deals with T2, Threonine--tRNA ligase. The assay can be described thus: Binding affinity to full length recombinant salmonella enterica threonyl-tRNA synthetase assessed as dissociation constant by isothermal titration calorimetry assay. Background: In ITC the heat of successive injections is recorded.
The target of assay [11] is T2, Threonine--tRNA ligase. Nature of the assay: Binding affinity to full length recombinant salmonella enterica threonyl-tRNA synthetase assessed as dissociation constant in presence of ATP by isothermal titration calorimetry assay.
The target of assay [12] is T2, Threonine--tRNA ligase. Nature of the assay: Binding affinity to full length recombinant salmonella enterica threonyl-tRNA synthetase assessed as dissociation constant in presence of L-threonine by isothermal titration calorimetry assay.
For assay [13], the target named is T2, Threonine--tRNA ligase. Nature of the assay: Binding affinity to full length recombinant salmonella enterica threonyl-tRNA synthetase assessed as dissociation constant in presence of glycine by isothermal titration calorimetry assay.
The target in assay [14] is T2, Threonine--tRNA ligase. Nature of the assay: Binding affinity to full length recombinant salmonella enterica threonyl-tRNA synthetase assessed as dissociation constant in presence of tRNA Threonine by isothermal titration calorimetry assay.
In assay [15] the target is T2, Threonine--tRNA ligase. Nature of the assay: Binding affinity to full length recombinant salmonella enterica threonyl-tRNA synthetase assessed as dissociation constant in presence of tRNA Leucine by isothermal titration calorimetry assay.

`C[C@@H](O)[C@H](N)C(=O)NCC=CCn1cnc2cc(Cl)c(Cl)cc2c1=O`: the MIC is not below 128 µg/mL in the assay with Escherichia coli [1]; not below 128 µg/mL in the assay with Staphylococcus aureus [4]; 64 µg/mL (≈ 166 µM) in the assay on Enterococcus faecalis; not below 128 µg/mL in the assay with Staphylococcus aureus [5]; 64 µg/mL (≈ 166 µM) in the assay on Salmonella enterica [6]; 64 µg/mL (≈ 166 µM) with Escherichia coli [7]. The MIC in the assay with Pseudomonas aeruginosa is not below 128 µg/mL; in the assay on Salmonella enterica [8] it was 16 µg/mL (≈ 41.5 µM). For the same compound, the ΔTm in assay [2] worked out at 17.6 °C. For the same compound, the inhibition in assay [3] was determined as 45%.
Consider `C[C@@H](O)[C@H](N)C(=O)N[C@@H](CNC(=O)CCn1cnc2cc(Br)c(Cl)cc2c1=O)c1cccc(-c2ccc3ccccc3c2)c1`, for which the MIC with Escherichia coli [1] was not below 128 µg/mL; with Staphylococcus aureus [4] it was 4 µg/mL (≈ 5.91 µM); with Enterococcus faecalis it was 4 µg/mL (≈ 5.91 µM); with Staphylococcus aureus [5] it was 4 µg/mL (≈ 5.91 µM); with Salmonella enterica [6], not below 128 µg/mL; with Escherichia coli [7], 8 µg/mL (≈ 11.8 µM). The MIC with Pseudomonas aeruginosa was found to be 4 µg/mL (≈ 5.91 µM). Besides, the ΔTm in assay [2] was 20.2 °C. Moreover, in assay [3], the inhibition was found to be 85%. The 50% inhibitory concentration (IC50) on Threonine--tRNA ligase [9] is 2100 nM.
In the case of `C[C@@H](O)[C@H](N)C(=O)N(CCCCCCn1cnc2cc(Br)c(Cl)cc2c1=O)Cc1cccc(-c2ccc3c(c2)CNC3=O)c1`, the MIC in the assay on Escherichia coli [1] is not below 128 µg/mL; with Staphylococcus aureus [4], 64 µg/mL (≈ 94 µM); in the assay on Enterococcus faecalis it was 64 µg/mL (≈ 94 µM); in the assay with Staphylococcus aureus [5], 64 µg/mL (≈ 94 µM); in the assay with Salmonella enterica [6], not below 128 µg/mL; in the assay with Escherichia coli [7], 64 µg/mL (≈ 94 µM). In the assay with Pseudomonas aeruginosa, the MIC was found to be 64 µg/mL (≈ 94 µM). Besides, the ΔTm in assay [2] was found to be 23.5 °C. For the same compound, the inhibition in [3] is 75%. Also, the IC50 on Threonine--tRNA ligase [9] was 5680 nM.
As to `C[C@@H](O)[C@H](N)C(=O)N[C@@H](CNC(=O)CCn1cnc2cc(Br)c(Cl)cc2c1=O)c1cccc(-c2ccc3c(c2)CNC3=O)c1`, the MIC in the assay with Escherichia coli [1], in the assay on Staphylococcus aureus [4], in the assay on Enterococcus faecalis, in the assay with Staphylococcus aureus [5], in the assay with Salmonella enterica [6] and with Escherichia coli [7] was not below 128 µg/mL throughout. Further, the MIC in the assay on Pseudomonas aeruginosa was not below 128 µg/mL. The ΔTm in assay [2] was determined as 32.8 °C. The inhibition in assay [3] is more than 99%. On Threonine--tRNA ligase [9], the concentration for half-maximal inhibition (IC50) amounted to 103 nM.
Consider `C[C@@H](O)[C@H](N)C(=O)N(CCCC(=O)NCCn1cnc2cc(Br)c(Cl)cc2c1=O)Cc1cccc(-c2ccc3c(c2)CNC3=O)c1`, for which the MIC was not below 128 µg/mL in the assay with Escherichia coli [1]; not below 128 µg/mL in the assay with Staphylococcus aureus [4]; 64 µg/mL (≈ 90.1 µM) with Enterococcus faecalis; not below 128 µg/mL in the assay on Staphylococcus aureus [5]; not below 128 µg/mL in the assay on Salmonella enterica [6]; 64 µg/mL (≈ 90.1 µM) with Escherichia coli [7]. For the same compound, in the assay with Pseudomonas aeruginosa, the MIC came out at 64 µg/mL (≈ 90.1 µM). Further, in assay [2], the ΔTm stood at 27.8 °C. The inhibition in [3] was found to be 84%. Also, at Threonine--tRNA ligase [9], the IC50 came out at 2990 nM.
For the compound `C[C@@H](O)[C@H](N)C(=O)N[C@@H](CNC(=O)CCn1cnc2cc(Cl)c(Cl)cc2c1=O)c1cccc(-c2ccc(C(F)(F)F)cc2)c1`, the MIC is not below 128 µg/mL with Escherichia coli [1]; 2 µg/mL (≈ 3.07 µM) in the assay with Staphylococcus aureus [4]; 4 µg/mL (≈ 6.15 µM) in the assay with Enterococcus faecalis; 4 µg/mL (≈ 6.15 µM) in the assay with Staphylococcus aureus [5]; not below 128 µg/mL in the assay with Salmonella enterica [6]; 8 µg/mL (≈ 12.3 µM) in the assay with Escherichia coli [7]. Also, the MIC with Pseudomonas aeruginosa turned out to be 4 µg/mL (≈ 6.15 µM). Also, the ΔTm in assay [2] worked out at 25.9 °C. For the same compound, in assay [3], the inhibition was more than 99%. For the same compound, the IC50 on Threonine--tRNA ligase [9] is 580 nM.
For `C[C@@H](O)[C@H](N)C(=O)N[C@@H](CNC(=O)CCn1cnc2cc(Cl)c(Cl)cc2c1=O)c1cccc(-c2ccc3c(c2)CNC3=O)c1`, the MIC in the assay with Escherichia coli [1], in the assay on Staphylococcus aureus [4], in the assay on Enterococcus faecalis, in the assay on Staphylococcus aureus [5], in the assay on Salmonella enterica [6] and in the assay on Escherichia coli [7] was not below 128 µg/mL throughout. In addition, the MIC in the assay on Pseudomonas aeruginosa was not below 128 µg/mL. Also, the ΔTm in assay [2] turned out to be 33.6 °C. In addition, the inhibition in [3] was more than 99%. Also, the IC50 at Threonine--tRNA ligase [9] was 19 nM. Besides, the Kd at Threonine--tRNA ligase [10] was 35.4 nM; at Threonine--tRNA ligase [11], 75.1 nM; at Threonine--tRNA ligase [12], 290 nM; on Threonine--tRNA ligase [13], 44.4 nM; at Threonine--tRNA ligase [14], 166 nM; at Threonine--tRNA ligase [15], 36.8 nM.
For `C[C@@H](O)[C@H](N)C(=O)N[C@@H](CNC(=O)CCn1cnc2cc(Br)c(Cl)cc2c1=O)c1cccc(-c2ccc3[nH]ccc3c2)c1`, the MIC in the assay with Escherichia coli [1] was not below 128 µg/mL; with Staphylococcus aureus [4] it was 32 µg/mL (≈ 48 µM); with Enterococcus faecalis, 32 µg/mL (≈ 48 µM); in the assay with Staphylococcus aureus [5], 32 µg/mL (≈ 48 µM); in the assay on Salmonella enterica [6] it was not below 128 µg/mL; in the assay on Escherichia coli [7] it was 16 µg/mL (≈ 24 µM). Besides, the MIC in the assay on Pseudomonas aeruginosa turned out to be 32 µg/mL (≈ 48 µM). In assay [2], the ΔTm is 22.6 °C. Moreover, the inhibition in assay [3] amounted to 91%. The IC50 at Threonine--tRNA ligase [9] worked out at 1620 nM.
